From ChEMBL document CHEMBL4138123, “Design, synthesis and biological evaluation of novel pyrazolochalcones as potential modulators of PI3K/Akt/mTOR pathway and inducers of apoptosis in breast cancer cells” (Eur J Med Chem, 2017)

Legend:
Format in all cases: functional
Malme-3M = assay: Cytotoxicity against human MALME-3M cells assessed as cell growth at 0.1 uM after 48 hrs by sulforhodamine B assay relative to control; settings: read-out: Activity
NCI/ADR-RES = assay: Cytotoxicity against human NCI/ADR-RES cells assessed as growth inhibition after 48 hrs by sulforhodamine B assay
NCI-H460 [1] = assay: Cytotoxicity against human NCI-H460 cells assessed as cell growth at 100 uM after 48 hrs by sulforhodamine B assay relative to control; settings: NCI-H460, 48 h, read-out: Activity
UACC-62 [2] = assay: Cytotoxicity against human UACC62 cells assessed as cell growth at 0.1 uM after 48 hrs by sulforhodamine B assay relative to control; settings: UACC-62, 48 h, read-out: Activity
SF-268 = assay: Cytotoxicity against human SF268 cells assessed as cell growth at 10 uM after 48 hrs by sulforhodamine B assay relative to control; settings: SF-268, 48 h, read-out: Activity
UO-31 = assay: Cytotoxicity against human UO31 cells assessed as growth inhibition after 48 hrs by sulforhodamine B assay; settings: UO-31, 48 h
SK-OV-3 = assay: Cytotoxicity against human SKOV3 cells assessed as cell growth at 0.01 uM after 48 hrs by sulforhodamine B assay relative to control; settings: SK-OV-3, 48 h, read-out: Activity
NCI-H522 [3] = assay: Cytotoxicity against human NCI-H522 cells assessed as cell growth at 0.01 uM after 48 hrs by sulforhodamine B assay relative to control; settings: NCI-H522, 48 h, read-out: Activity
NCI-H460 [4] = assay: Cytotoxicity against human NCI-H460 cells assessed as cell growth at 1 uM after 48 hrs by sulforhodamine B assay relative to control; settings: NCI-H460, 48 h, read-out: Activity
T47D [5] = assay: Cytotoxicity against human T47D cells assessed as cell growth at 0.1 uM after 48 hrs by sulforhodamine B assay relative to control; settings: read-out: Activity
M14 = assay: Cytotoxicity against human M14 cells assessed as cell growth at 0.01 uM after 48 hrs by sulforhodamine B assay relative to control; settings: M14, 48 h, read-out: Activity
UACC-62 [6] = assay: Cytotoxicity against human UACC62 cells assessed as growth inhibition after 48 hrs by sulforhodamine B assay; settings: UACC-62, 48 h
HCT-15 = assay: Cytotoxicity against human HCT15 cells assessed as growth inhibition after 48 hrs by sulforhodamine B assay; settings: HCT-15, 48 h
MDA-MB-231 [7] = assay: Cytotoxicity against human MDA-MB-231 cells assessed as cell growth at 0.1 uM after 48 hrs by sulforhodamine B assay relative to control; settings: MDA-MB-231, 48 h, read-out: Activity
NCI-H522 [8] = assay: Cytotoxicity against human NCI-H522 cells assessed as cell growth at 10 uM after 48 hrs by sulforhodamine B assay relative to control; settings: NCI-H522, 48 h, read-out: Activity
A549 [9] = assay: Cytotoxicity against human A549/ATCC cells assessed as growth inhibition after 48 hrs by sulforhodamine B assay; settings: A549, 48 h
OVCAR-3 = assay: Cytotoxicity against human OVCAR3 cells assessed as cell growth at 1 uM after 48 hrs by sulforhodamine B assay relative to control; settings: OVCAR-3, 48 h, read-out: Activity
A549 [10] = assay: Cytotoxicity against human A549/ATCC cells assessed as cell growth at 0.01 uM after 48 hrs by sulforhodamine B assay relative to control; settings: A549, 48 h, read-out: Activity
T47D [11] = assay: Cytotoxicity against human T47D cells assessed as growth inhibition after 48 hrs by sulforhodamine B assay
T47D [12] = assay: Cytotoxicity against human T47D cells assessed as cell growth at 0.01 uM after 48 hrs by sulforhodamine B assay relative to control; settings: read-out: Activity
DU-145 = assay: Cytotoxicity against human DU145 cells assessed as cell growth at 1 uM after 48 hrs by sulforhodamine B assay relative to control; settings: DU-145, 48 h, read-out: Activity
MDA-MB-231 [13] = assay: Cytotoxicity against human MDA-MB-231 cells assessed as growth inhibition after 48 hrs by sulforhodamine B assay; settings: MDA-MB-231, 48 h
KM12 = assay: Cytotoxicity against human KM12 cells assessed as cell growth at 100 uM after 48 hrs by sulforhodamine B assay relative to control; settings: KM12, 48 h, read-out: Activity
HCT-116 = assay: Cytotoxicity against human HCT116 cells assessed as cell growth at 0.1 uM after 48 hrs by sulforhodamine B assay relative to control; settings: HCT-116, 48 h, read-out: Activity
RXF 393 = assay: Cytotoxicity against human RXF393 cells assessed as growth inhibition after 48 hrs by sulforhodamine B assay; settings: RXF 393, 48 h
A498 = assay: Cytotoxicity against human A498 cells assessed as cell growth at 0.01 uM after 48 hrs by sulforhodamine B assay relative to control; settings: A498, 48 h, read-out: Activity
SF-539 [14] = assay: Cytotoxicity against human SF539 cells assessed as cell growth at 10 uM after 48 hrs by sulforhodamine B assay relative to control; settings: SF-539, 48 h, read-out: Activity
U-251 [15] = assay: Cytotoxicity against human U251 cells assessed as growth inhibition after 48 hrs by sulforhodamine B assay; settings: U-251, 48 h
SF-539 [16] = assay: Cytotoxicity against human SF539 cells assessed as cell growth at 0.01 uM after 48 hrs by sulforhodamine B assay relative to control; settings: SF-539, 48 h, read-out: Activity
U-251 [17] = assay: Cytotoxicity against human U251 cells assessed as cell growth at 0.1 uM after 48 hrs by sulforhodamine B assay relative to control; settings: U-251, 48 h, read-out: Activity
OVCAR-5 = assay: Cytotoxicity against human OVCAR5 cells assessed as cell growth at 100 uM after 48 hrs by sulforhodamine B assay relative to control; settings: OVCAR-5, 48 h, read-out: Activity
NCI-H23 = assay: Cytotoxicity against human NCI-H23 cells assessed as cell growth at 1 uM after 48 hrs by sulforhodamine B assay relative to control; settings: NCI-H23, 48 h, read-out: Activity
MDA-MB-468 = assay: Cytotoxicity against human MDA-MB-468 cells assessed as cell growth at 100 uM after 48 hrs by sulforhodamine B assay relative to control; settings: MDA-MB-468, 48 h, read-out: Activity
SK-MEL-5 = assay: Cytotoxicity against human SK-MEL-5 cells assessed as cell growth at 1 uM after 48 hrs by sulforhodamine B assay relative to control; settings: SK-MEL-5, 48 h, read-out: Activity
MDA-MB-435 = assay: Cytotoxicity against human MDA-MB-435 cells assessed as cell growth at 0.1 uM after 48 hrs by sulforhodamine B assay relative to control; settings: MDA-MB-435, 48 h, read-out: Activity

COc1ccc(C(=O)/C=C/c2cc(-c3cc(OC)c(OC)c(OC)c3)n[nH]2)cc1
growth at 0.1 µM (Malme-3M): 91%
LC50 (NCI/ADR-RES): > 100 µM
TGI (NCI/ADR-RES): 9.85 µM
growth at 100 µM (NCI-H460 [1]): -62%
growth at 0.1 µM (UACC-62 [2]): 100%
growth at 10 µM (SF-268): -35%
LC50 (UO-31): 5.59 µM
TGI (UO-31): 2.84 µM
growth at 0.01 µM (SK-OV-3): 100%
growth at 0.01 µM (NCI-H522 [3]): 83%
growth at 1 µM (NCI-H460 [4]): 85%
growth at 0.1 µM (T47D [5]): 93%
growth at 0.01 µM (M14): 100%
TGI (UACC-62 [6]): 3.65 µM
LC50 (HCT-15): > 100 µM
TGI (HCT-15): 4.37 µM
growth at 0.1 µM (MDA-MB-231 [7]): 94%
growth at 10 µM (NCI-H522 [8]): -73%
LC50 (concentration giving 50% net cell kill) (A549 [9]): > 100 µM
growth at 1 µM (OVCAR-3): 89%
growth at 0.01 µM (A549 [10]): 98%
LC50 (T47D [11]): > 100 µM
TGI (T47D [11]): 13 µM
growth at 0.01 µM (T47D [12]): 96%
growth at 1 µM (DU-145): 76%
LC50 (MDA-MB-231 [13]): > 100 µM
growth at 100 µM (KM12): -74%
growth at 0.1 µM (HCT-116): 102%
LC50 (concentration killing 50% of cells) (RXF 393): 5.17 µM
TGI (RXF 393): 2.56 µM
growth at 0.01 µM (A498): 98%
growth at 10 µM (SF-539 [14]): -92%
TGI (U-251 [15]): 2.83 µM
growth at 0.01 µM (SF-539 [16]): 97%
growth at 0.1 µM (U-251 [17]): 97%
growth at 100 µM (OVCAR-5): -59%
growth at 1 µM (NCI-H23): 95%
growth at 100 µM (MDA-MB-468): -78%
growth at 1 µM (SK-MEL-5): 93%
growth at 0.1 µM (MDA-MB-435): 95%

COc1cc(C(=O)/C=C/c2cc(-c3ccc4c(c3)OCO4)n[nH]2)cc(OC)c1OC
growth at 0.1 µM (Malme-3M): 83%
GI50 (NCI/ADR-RES): 2.99 µM
LC50 (NCI/ADR-RES): > 100 µM
TGI (NCI/ADR-RES): 12.3 µM
growth at 100 µM (NCI-H460 [1]): -78%
growth at 0.1 µM (UACC-62 [2]): 97%
growth at 10 µM (SF-268): -12%
GI50 (UO-31): 1.34 µM
LC50 (UO-31): 5.33 µM
TGI (UO-31): 2.67 µM
growth at 0.01 µM (SK-OV-3): 98%
growth at 0.01 µM (NCI-H522 [3]): 97%
growth at 1 µM (NCI-H460 [4]): 90%
growth at 0.1 µM (T47D [5]): 77%
growth at 0.01 µM (M14): 98%
GI50 (UACC-62 [6]): 1.81 µM
LC50 (UACC-62 [6]): 8.36 µM
TGI (UACC-62 [6]): 3.89 µM
GI50 (HCT-15): 1.95 µM
LC50 (HCT-15): > 100 µM
TGI (HCT-15): 6.75 µM
growth at 0.1 µM (MDA-MB-231 [7]): 98%
growth at 10 µM (NCI-H522 [8]): -71%
GI50 (A549 [9]): 2.13 µM
LC50 (concentration giving 50% net cell kill) (A549 [9]): 30.1 µM
TGI (A549 [9]): 6.23 µM
growth at 1 µM (OVCAR-3): 87%
growth at 0.01 µM (A549 [10]): 100%
GI50 (T47D [11]): 1.51 µM
LC50 (T47D [11]): 19.9 µM
TGI (T47D [11]): 4.63 µM
growth at 0.01 µM (T47D [12]): 90%
growth at 1 µM (DU-145): 97%
GI50 (MDA-MB-231 [13]): 2.08 µM
LC50 (MDA-MB-231 [13]): 23.8 µM
TGI (MDA-MB-231 [13]): 6.23 µM
growth at 100 µM (KM12): -79%
growth at 0.1 µM (HCT-116): 100%
GI50 (RXF 393): 1.31 µM
LC50 (concentration killing 50% of cells) (RXF 393): 6.59 µM
TGI (RXF 393): 2.94 µM
growth at 0.01 µM (A498): 89%
growth at 10 µM (SF-539 [14]): -75%
GI50 (U-251 [15]): 1.21 µM
LC50 (U-251 [15]): 5.13 µM
TGI (U-251 [15]): 2.49 µM
growth at 0.01 µM (SF-539 [16]): 101%
growth at 0.1 µM (U-251 [17]): 96%
growth at 100 µM (OVCAR-5): -56%
growth at 1 µM (NCI-H23): 92%
growth at 100 µM (MDA-MB-468): -80%
growth at 1 µM (SK-MEL-5): 89%
growth at 0.1 µM (MDA-MB-435): 95%
